{"source": "patent US20260272915A1", "about": "“PHARMACEUTICAL COMPOSITION FOR TREATING, PREVENTING, OR MANAGING BILIRUBIN-INDUCED NEUROLOGICAL DYSFUNCTION, PSYCHIATRIC DISORDERS ASSOCIATED WITH JAUNDICE, OR PSYCHIATRIC DISORDERS CAUSED BY BILIRUBIN UDP-GLUCURONOSYLTRANSFERASE GENE MUTATIONS” (priority 2023, published 2026)", "assay_type_in_all_cases": "in vivo, rat", "key": {"[1]": {"test_system": "jaundice model rats (Gunn rats)", "assay": "Open field test", "settings": "for Effect on number of grooming behaviors of Gunn rats (in words) / Effect on number of rearing behaviors of Gunn rats (in words) / Effect on spontaneous activity amount of Gunn rats (in words): compared with normal (Wistar) rats; for Spontaneous Activity Amount, Average / Number of Rearing Behaviors, Average / Number of Grooming Behaviors, Average: Gunn rats (j/j)", "procedure": "Eltoprazine (E1357, TCI), which is one of the 5-HT1A/1B receptor agonists, was dissolved in an arbitrary solvent. 0.3 mg/kg of eltoprazine was subcutaneously administered to jaundice model rats (Gunn rats) at 9 to 10 weeks of age. Further, as control groups, only a solvent was subcutaneously administered to Gunn rats and Wistar rats at 9 to 10 weeks of age. Further, as a comparison group, 8OH-DPAT (O415005, FUJIFILM Wako Pure Chemical Corporation), which is one of 5-HT1A receptor agonists, was dissolved in an arbitrary solvent, and 1 mg/kg thereof was subcutaneously administered to Gunn rats. After placing each rat in its home cage for 60 minutes, an open field test was conducted for 60 minutes using the Scanet MV-40 (Melquest Ltd.). The spontaneous activity amount and the number of rearing behaviors were measured for each rat by counting how many times the rat crossed the center evenly spaced. The number of grooming behaviors was counted by visual inspection.\nEltoprazine (E1357, TCI), which is one of the 5-HT1A/1B receptor agonists, was dissolved in an arbitrary solvent. 0.3 mg/kg of eltoprazine was subcutaneously administered to jaundice model rats (Gunn rats) at 9 to 10 weeks of age. Further, as control groups, only a solvent was subcutaneously administered to Gunn rats and Wistar rats at 9 to 10 weeks of age. Further, as a comparison group, CGS12066A (Sigma-Aldrich Co. LLC), which is one of 5-HT1B receptor agonists, was dissolved in an arbitrary solvent, and 1 mg/kg thereof was subcutaneously administered to Gunn rats. After placing each rat in its home cage for 60 minutes, an open field test was conducted for 60 minutes using the Scanet MV-40 (Melquest Ltd.). The spontaneous activity amount and the number of rearing behaviors for each rat were measured by counting how many times the rat crossed the center evenly spaced. The number of grooming behaviors was counted by visual inspection."}, "Gunn rats [2]": {"test_system": "Gunn rats", "assay": "Social interaction test", "settings": "for Attacking Behavior, Average / Following Behavior, Average / Sniffing Behavior/Grooming Behavior, Average: Gunn rats (j/j), 1 h after administration, 10 min recording; for Sniffing Behavior/Grooming Behavior, Average: duration of sniffing or grooming the partner", "procedure": "Eltoprazine (E1357, TCI), which is one of 5-HT1A/1B receptor agonists, was dissolved in a physiological saline solution. Only a solvent, 0.3 mg/kg of eltoprazine, or 1 mg/kg of eltoprazine was administered subcutaneously to Gunn rats at 9 to 10 weeks of age. For control, only a solvent was administered to Wistar rats as normal rats. One hour after the administration, two rats of the same type (same drug, same dose, same genetic type) were placed together in a single cage, and their behaviors were video-recorded from above for 10 minutes. The recorded video was visually analyzed, and the number of behaviors of following the partner, the attacking behavior, and the duration of sniffing or grooming the partner were measured."}, "Gunn rats [3]": {"test_system": "Gunn rats", "assay": "Startle response prepulse inhibition (PPI) test", "settings": "0.3 mg/kg subcutaneous, 80 dB prepulse", "procedure": "Eltoprazine (E1357, TCI), which is one of 5-HT1A/1B receptor agonists, was dissolved in a physiological saline solution. Only a solvent, 0.3 mg/kg of eltoprazine, or 1 mg/kg of eltoprazine was administered subcutaneously to Gunn rats at 9 to 10 weeks of age. For control, only a solvent was administered to Wistar rats as normal rats. One hour after the administration, a startle response prepulse inhibition (PPI) test was performed. The PPI test was conducted using the SR-LAB-Startle Response System (San Diego Institute, USA). Each rat subjected to the measurement was placed in a measurement chamber and acclimated with a 65 dB background white noise for 5 minutes before the start of stimulation. The startle response to a 120 dB auditory stimulation was measured using a piezoelectric sensor attached to the bottom of the chamber. The test session consisted of a total of 50 randomized trials, including no-stimulus (white noise only), 20 ms of 120 dB pulse stimulation, and stimulation with 20 ms of 70 dB or 80 dB prepulse 100 ms before the 120 dB pulse. The interval between the trials was 20 to 60 seconds (average: 40 seconds). The percentage PPI was calculated using the following formula: 100−[(startle response to prepulse-pulse stimulation trial−no-stimulation trial)/(pulse-alone trial−no-stimulation trial)×100]."}, "[4]": {"settings": "0.3 mg/kg or 1 mg/kg subcutaneous, compared with normal rats"}}}
{"smiles": "CCCN(CCC)C1CCc2cccc(O)c2C1", "note": "(centres unmarked) [8OH-DPAT]", "values": [{"measurement": "Effect on number of grooming behaviors of Gunn rats (in words)", "setting": "[1]; 1 mg/kg subcutaneous", "result": "levels comparable to those of normal rats"}, {"measurement": "Effect on number of rearing behaviors of Gunn rats (in words)", "setting": "[1]; 1 mg/kg subcutaneous", "result": "abnormal number of rearing behaviors"}, {"measurement": "Effect on spontaneous activity amount of Gunn rats (in words)", "setting": "[1]; 1 mg/kg subcutaneous", "result": "levels comparable to those of normal rats"}, {"measurement": "Spontaneous Activity Amount, Average", "setting": "[1]; Table 2, 1 mg/kg subcutaneous, 60 min home cage then 60 min open field", "result": 2681, "unit": "count"}, {"measurement": "Number of Rearing Behaviors, Average", "setting": "[1]; Table 3, 1 mg/kg subcutaneous, 60 min open field", "result": 0.3, "unit": "times"}, {"measurement": "Number of Grooming Behaviors, Average", "setting": "[1]; Table 4, 1 mg/kg subcutaneous, 60 min open field, visual inspection", "result": 5.5, "unit": "count"}]}
{"smiles": "CN1CCN(c2nc3cc(C(F)(F)F)ccc3n3cccc23)CC1", "note": "[CGS12066A]", "values": [{"measurement": "Effect on number of grooming behaviors of Gunn rats (in words)", "setting": "[1]; 1 mg/kg subcutaneous", "result": "did not improve"}, {"measurement": "Effect on number of rearing behaviors of Gunn rats (in words)", "setting": "[1]; 1 mg/kg subcutaneous", "result": "levels comparable to those of normal rats"}, {"measurement": "Effect on spontaneous activity amount of Gunn rats (in words)", "setting": "[1]; 1 mg/kg subcutaneous", "result": "levels comparable to those of normal rats"}, {"measurement": "Spontaneous Activity Amount, Average", "setting": "[1]; Table 5, 1 mg/kg subcutaneous, 60 min open field", "result": 4030, "unit": "count"}, {"measurement": "Number of Rearing Behaviors, Average", "setting": "[1]; Table 6, 1 mg/kg subcutaneous, 60 min open field", "result": 47, "unit": "count"}, {"measurement": "Number of Grooming Behaviors, Average", "setting": "[1]; Table 7, 1 mg/kg subcutaneous, 60 min open field", "result": 19.6, "unit": "count"}]}
{"smiles": "c1cc2c(c(N3CCNCC3)c1)OCCO2", "note": "[eltoprazine, 5-(piperazin-1-yl)-2,3-dihydro-1,4-benzodioxine]", "values": [{"measurement": "Effect on attacking behavior of Gunn rats (in words)", "setting": "Gunn rats [2]; [4]", "result": "levels comparable to those of normal rats"}, {"measurement": "Effect on duration of sniffing or grooming the partner in Gunn rats (in words)", "setting": "Gunn rats [2]; [4]", "result": "normal level"}, {"measurement": "Effect on following behavior of Gunn rats (in words)", "setting": "Gunn rats [2]; [4]", "result": "levels comparable to those of normal rats"}, {"measurement": "Attacking Behavior, Average", "setting": "Gunn rats [2]; 0.3 mg/kg subcutaneous", "result": 2, "unit": "count"}, {"measurement": "Following Behavior, Average", "setting": "Gunn rats [2]; 0.3 mg/kg subcutaneous", "result": 2.16, "unit": "count"}, {"measurement": "Attacking Behavior, Average", "setting": "Gunn rats [2]; 1 mg/kg subcutaneous", "result": 0.16, "unit": "count"}, {"measurement": "Following Behavior, Average", "setting": "Gunn rats [2]; 1 mg/kg subcutaneous", "result": 3.83, "unit": "count"}, {"measurement": "Sniffing Behavior/Grooming Behavior, Average", "setting": "Gunn rats [2]; 0.3 mg/kg subcutaneous", "result": 52, "unit": "count"}, {"measurement": "Sniffing Behavior/Grooming Behavior, Average", "setting": "Gunn rats [2]; 1 mg/kg subcutaneous", "result": 41.5, "unit": "count"}, {"measurement": "Effect on percentage PPI of Gunn rats (in words)", "setting": "Gunn rats [3]", "result": "tendency to improve"}, {"measurement": "Percentage PPI, Average", "setting": "Gunn rats [3]; 120 dB pulse, Gunn rats (j/j), 1 h after administration", "result": 63.6, "unit": "%"}, {"measurement": "Effect on number of grooming behaviors of Gunn rats (in words)", "setting": "[1]; 0.3 mg/kg subcutaneous", "result": "levels comparable to those of normal rats"}, {"measurement": "Effect on number of rearing behaviors of Gunn rats (in words)", "setting": "[1]; 0.3 mg/kg subcutaneous", "result": "levels comparable to those of normal rats"}, {"measurement": "Effect on spontaneous activity amount of Gunn rats (in words)", "setting": "[1]; 0.3 mg/kg subcutaneous", "result": "levels comparable to those of normal rats"}, {"measurement": "Spontaneous Activity Amount, Average", "setting": "[1]; Table 2, 0.3 mg/kg subcutaneous, 60 min home cage then 60 min open field", "result": 4640, "unit": "count"}, {"measurement": "Number of Rearing Behaviors, Average", "setting": "[1]; Table 3, 0.3 mg/kg subcutaneous, 60 min open field", "result": 61.5, "unit": "times"}, {"measurement": "Number of Grooming Behaviors, Average", "setting": "[1]; Table 4, 0.3 mg/kg subcutaneous, 60 min open field, visual inspection", "result": 8.5, "unit": "count"}, {"measurement": "Spontaneous Activity Amount, Average", "setting": "[1]; Table 5, 0.3 mg/kg subcutaneous, 60 min open field", "result": 4640, "unit": "count"}, {"measurement": "Number of Rearing Behaviors, Average", "setting": "[1]; Table 6, 0.3 mg/kg subcutaneous, 60 min open field", "result": 61.5, "unit": "count"}, {"measurement": "Number of Grooming Behaviors, Average", "setting": "[1]; Table 7, 0.3 mg/kg subcutaneous, 60 min open field", "result": 8.5, "unit": "count"}]}
